Here are results for one molecule from patent US11841369B2, “Method for improving quality of therapeutic cell through real-time glutathione measurement” (CELL2IN, INC., priority 2017, dated 2023).

Experiment [1] has as its system hUC-MSCs. Nature of the experiment: SDF1α- and PDGF-AA-induced migration capacity of hUC-MSCs. It is filed as cell-based, human. Conditions: 125 or 250 μg/mL AA2G, three days. The procedure:
The inventors observed an effect of the material on stem cells by treating each stem cells with a material for enhancing a glutathione evaluation parameter. When hUC-MSCs were subcultured in a L-AA2G-containing medium, CFU-F, migration capacity, and an anti-inflammatory effect were observed. A CFU-F assay (n=3) was performed by treating hUC-MSCs with 125 or 250 μg/mL of AA2G for three days. As shown in FIGS. 16A and 16B, it was confirmed that, when AA2G was treated, CFU-F increased. In addition, as hUC-MSCs were treated with 125 or 250 μg/mL of AA2G for three days, PDGF-AA-induced migration capacity (n=3) was analyzed. As shown in FIGS. 17A and 17B, it was confirmed that the migration capacity was increased by AA2G treatment. In addition, the reduction in T cell proliferation, a reduction in T cell differentiation, and the promotion of Treg cell differentiation were observed by treating hUC-MSCs with 125 or 250 μg/mL of AA2G for three days. […] Meanwhile, hUC-MSCs were cultured with a glutathione precursor such as γ-glutamyl cysteine (GGC, 0.1, 0.25, and 0.5 mM). A CFU-F assay (n=3) was performed by treating hUC-MSCs with each concentration of GGC for 2 hours. […] In addition, SDF1α and PDGF-AA-induced migration capacities (n=3) were analyzed for hUC-MSCs without treatment with GGC, and SDF1α- and PDGF-AA-induced migration abilities (n=3) were analyzed by treating hUC-MSCs with the increasing concentrations of GGC. STI571 was used as a PDGFR kinase inhibitor. As shown in FIGS. 20A to 20C, it was confirmed that, according to an increase in GGC treatment concentration, SDF1α- and PDGF-AA-induced migration capacities were enhanced.

In experiment [2] the test system is hUC-MSCs. Nature of the experiment: FreSH-Tracer-based glutathione regeneration capacity (GRC) after diamide. The arrangement: species or system human. Conditions: hUC-MSCs subcultured three times with AA2G 250 μg/mL, low concentration of diamide, vs naive cell group. How it is done:
In addition, GH is calculated as the coefficient of variation or robust coefficient of variation of cellular FR. GRC refers to a value obtained by real-time monitoring of FR after living cells are treated with an oxidizing agent, as calculated by dividing a value obtained by subtracting AUC of a group treated with 0.1-100 mM N-ethylmaleimide (NEM) from FR AUC of an oxidizing agent (diamide, H2O2, etc.)-treated group by a value obtained by subtracting the AUC of NEM-treated group from AUC of the untreated control, and multiplying the resulting value by 100. The FR of the NEM-treated group is a value for increasing the sensitivity of a GRC value by treating it as the blank value of the FR of the cells of interest. […] To remove the MitoFreSH-Tracer from the medium before measurement, the medium was exchanged with fresh 10 mM HEPES-containing HBSS, and a fluorescence image was obtained using a confocal imaging system, Operetta. By comparing GSH levels quantified from control cells not treated with RSL3 or control cells before treated with RSL3, the distribution of GSH expression-changed cells was calculated. Based on the point where the distribution histogram is divided into two peaks, the cells were divided into GSH^High cells (right peak) and GSH^Low cells (left peak), and then a ratio of corresponding cells was expressed as a percentage (%). […]

For another experiment, the system named is T cells. Nature of the experiment: Anti-inflammatory effect of treated hUC-MSCs: T cell proliferation, T cell differentiation, Treg cell differentiation. It is filed as cell-based. Conditions: hUC-MSCs treated with 125 or 250 μg/mL AA2G, three days. The procedure:
The inventors observed an effect of the material on stem cells by treating each stem cells with a material for enhancing a glutathione evaluation parameter. When hUC-MSCs were subcultured in a L-AA2G-containing medium, CFU-F, migration capacity, and an anti-inflammatory effect were observed. A CFU-F assay (n=3) was performed by treating hUC-MSCs with 125 or 250 μg/mL of AA2G for three days. As shown in FIGS. 16A and 16B, it was confirmed that, when AA2G was treated, CFU-F increased. In addition, as hUC-MSCs were treated with 125 or 250 μg/mL of AA2G for three days, PDGF-AA-induced migration capacity (n=3) was analyzed. As shown in FIGS. 17A and 17B, it was confirmed that the migration capacity was increased by AA2G treatment. In addition, the reduction in T cell proliferation, a reduction in T cell differentiation, and the promotion of Treg cell differentiation were observed by treating hUC-MSCs with 125 or 250 μg/mL of AA2G for three days.
In addition, hUC-MSCs were cultured with ferrostatin-1 (0.2, 1, 2 and 4 μM) and liproxstatin-1 (0.1, 0.5, 1 and 2 μM), which control a glutathione level in cells by inhibiting lipid oxidation. […] Meanwhile, the hUC-MSCs were treated with 1 μM ferrostatin-1 for 24 hours, 0.2 mM GGC for 2 hours, and 2 mM GSH-EE for 2 hours. As a result, the reduction in T cell proliferation ability and the reduction in T cell differentiation capacity were observed, and promotion of Treg cell differentiation was observed.

For `O=C1O[C@H]([C@@H](O)CO)C(O)=C1O[C@H]1O[C@H](CO)[C@@H](O)[C@H](O)[C@H]1O` [AA2G, ascorbic acid 2-glucoside], the PDGF-AA-induced migration capacity entry in the experiment with hUC-MSCs [1] is reported as “increased”. The “FreSH-Tracer-based GRC” value with hUC-MSCs [2] was “increased”. Besides, in the experiment with T cells, the T cell differentiation result is “reduction”, the T cell proliferation result is recorded as “reduction”, the Treg cell differentiation entry was “promotion” and the “anti-inflammatory effect of stem cells” value is reported as “exhibited”.
